Measured values from PubChem BioAssay (NCI).
“And” between values parts separate entries of the source, which are not always exact repeats. Equal entries are not always repeated.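 Exposure lasted 48 hours, with cells grown in 96-well plates and compounds tested at five concentrations. GI50: concentration for 50% inhibition of growth. TGI: total growth inhibition.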

What was measured:
Test in all cases: NCI-60 cell line screen, 48 h
[1] = tested on: CAKI-1 renal
[2] = tested on: HCT-116 colon
[3] = tested on: HCT-15 colon
[4] = tested on: LXFL 529 NSCLC
[5] = tested on: NCI-H23 lung
[6] = tested on: OVCAR-4 ovarian
[7] = tested on: SF-295 CNS
[8] = tested on: XF 498 CNS
[9] = tested on: DU-145 prostate
[10] = tested on: NCI/ADR-RES ovarian

Row | Compound | GI50 [1] | TGI [1] [µM] | GI50 [2] | TGI [2] | GI50 [3] | TGI [3] [µM] | GI50 [4] [µM] | TGI [4] [µM] | GI50 [5] | TGI [5] | GI50 [6] | TGI [6] [µM] | GI50 [7] | TGI [7] [µM] | GI50 [8] [µM] | TGI [8] [µM] | TGI [9] [µM] | TGI [10] | GI50 [9] | GI50 [10]
1 | [CH3][Sn]1([CH3])[O]CC(COc2cc(Cl)c(Cl)cc2Cl)[O]1 (centres undefined) | 28.1 µM | 89.3 | 73.7 µM | > 100 µM | > 100 µM | > 100 | 41.2 | > 100 | > 100 µM | > 100 µM | > 100 µM | > 100 | 38.8 µM | > 100 | 68 | > 100 |  |  |  | 
2 | CCCCCCCCCCCCCCCCOCC(O)CO (centres undefined) |  | 35 |  | 34.1 µM |  | 35.9 |  |  |  | 37.2 µM |  | 46.1 |  | 30.3 |  |  | 34 | 34.7 µM |  | 
3 | COc1ccc(C2=Nc3c/c(=C\c4c(O)[nH]c5cc(Cl)ccc45)ccc3=N2)cc1 | 14.5 µM | 43.6 | 2.38 µM | 8.8 µM | 3 µM | 11.5 |  |  | 10.2 µM | 24.2 µM | 3.22 µM | 13.6 | 12.3 µM | 63.8 |  |  | 21.6 | 33.8 µM | 6.6 µM | 5 µM
4 | COC(=O)/C(=N\Nc1nnc(C)n1N)C(C#N)c1ccccc1 (centres undefined) |  | > 100 |  | > 100 µM |  | > 100 |  | > 100 |  | > 56.1 µM |  | > 67.4 |  | > 100 |  | > 100 | > 100 | > 100 µM |  | 
5 | C#CCOCn1cnc2ncnc(N)c21 |  | > 100 |  | > 100 µM |  |  |  |  |  | > 100 µM |  | > 100 |  | > 100 |  | > 100 |  |  |  | 
6 | O=C1C=Cc2ncccc2C1=O |  | 48.9 |  | 31.1 µM |  | 33.5 |  | 30.2 |  | 39.6 µM |  | 17.2 |  | 32.2 |  | 39.3 |  |  |  | 
7 | O=C(NOCCO)c1cc(CN2OCCCC2=O)c(F)c(F)c1Nc1ccc(I)cc1F | 0.29 µM | > 40.5 | 0.0171 µM and 0.0207 µM | 28.6 µM and > 10 µM | 5.74 µM and > 6.24 µM | > 100 |  |  | < 0.0222 µM and 0.0545 µM | 26.5 µM and > 10 µM | 6.13 µM and > 7.82 µM | > 90.4 | 16.9 µM and > 10 µM | > 75.4 |  |  | > 100 | > 100 µM | 12 µM and > 8.73 µM | 19.4 µM and > 10 µM
8 | Nc1ccn(C2OC(C(OC3OC(CO)C(O)C(N)C3O)C(O)C(O)C(O)C(O)CO)C(N)C(O)C2O)c(=O)n1 (centres undefined) |  | > 100 |  | > 100 µM |  | > 100 |  |  |  | > 100 µM |  | 14.8 |  | 58 |  |  | > 100 | > 100 µM |  | 
9 | Oc1ccc(Cl)cc1/C=N\NC(=S)N/N=C/c1cc(Cl)ccc1O | 1.24 µM | 8.48 | 1.42 µM | 18.5 µM | 0.997 µM | > 100 |  |  | 4.61 µM | 67.7 µM | 2.25 µM | 50.3 | 3 µM | > 100 |  |  | 70 | 32.8 µM | 3.67 µM | 2.78 µM
10 | CC(/C=N/N=C(N)N)=N\N=C(N)N | 51.7 µM and 15.7 µM | 1010 | 52.1 µM | 1370 µM | > 51.4 µM | 2500 |  |  | 31.1 µM | > 61.8 µM and 171 µM | 13.2 µM | 95.3 |  | 856 |  | 12 | 2240 | 61.1 µM and 126 µM | 31 µM | 20.8 µM
11 | CCCN1CCC=C(c2ccc(Nc3nc(Nc4ccccc4C(N)=O)c4cc[nH]c4n3)c(C)c2)C1 | 9.49 µM | > 25 | 2.56 µM | > 25 µM | 8.98 µM | > 25 |  |  | 8.16 µM | > 25 µM | > 14.6 µM | > 25 | > 25 µM | > 25 |  |  | > 25 | > 25 µM | 3.76 µM | > 22.4 µM
12 | N#C/C(=C\c1ccc2[nH]ccc2c1)C(=O)c1ccc(O)c(O)c1 |  | > 100 |  | > 100 µM |  | > 100 |  | > 100 |  | > 100 µM |  | > 100 |  | > 100 |  |  | > 100 | > 100 µM |  | 
13 | COc1ccc(-c2nc(C(=O)c3ccccc3)n(CC(=O)c3ccc(Cl)cc3)c2-c2ccc(OC)cc2)cc1 | > 100 µM | > 100 | > 100 µM | > 100 µM | > 100 µM | > 100 |  |  | > 100 µM | > 100 µM | > 100 µM | > 100 | > 100 µM | > 100 |  |  | > 100 | > 100 µM | > 100 µM | > 100 µM
14 | Cc1ccc(/C=N/NS(=O)(=O)c2ccccc2)c(C)c1 |  | > 100 |  | > 100 µM |  | > 100 |  | > 100 |  | > 100 µM |  | > 100 |  | > 100 |  | > 100 |  |  |  | 
15 | CC(=O)OC(=O)O/C=C\CCl |  | > 100 |  | > 100 µM |  | > 100 |  | > 100 |  |  |  | > 100 |  |  |  |  |  |  |  | 
16 | Cn1nc(-c2ccccc2)c(C(=O)/C=C/c2ccc(Cl)cc2)c(N2CCCC2)c1=O |  | 22.2 |  | 8.11 µM |  | > 100 |  | 13 |  | 10.6 µM |  |  |  | 11.6 |  | 28.3 |  |  |  | 
17 | C/C(CC(=O)Nc1cccc([N+](=O)[O-])c1)=N\NC(=O)CC#N |  |  |  | > 100 µM |  |  |  | > 100 |  | > 100 µM |  |  |  | > 100 |  | > 100 |  |  |  | 
18 | CNC(c1ccncc1)C(NC)c1ccncc1 (centres undefined) |  | > 100 |  | > 100 µM |  | > 100 |  |  |  | > 100 µM |  | > 100 |  | > 100 |  |  | > 100 | > 100 µM |  | 
